Experimental data from patent publication US20080267941A1, “Nutrition Comprising Betaine Against Muscle Wasting” (N. V. Nutricia, priority 2005, published 2008).
Where a name gives a salt, the structure may show the parent alone.

Tested on: muscles of normal healthy rats
Assay: Resting muscle glycogen levels in rats after 6 weeks of oral betaine supplementation
Type: in vivo, rat
Settings: for Resting glycogen levels in rats: male Wistar rats, 60 mg betaine in 1 ml vanilla custard orally each day for 6 weeks, *P < 0.05
Method: Experiments were performed on 8 male Wistar rats, 250-300 gram, which were housed individually, and had free access to water and food. All experimental procedures were approved by the Institutional Animal Care and Use Committee of the Netherlands, and complied with the principles of laboratory animal care. To determine the effect of oral betaine supplementation, the betaine group (n=4) received 1 ml vanilla custard each day in combination with 60 mg betaine (Sigma Aldrich), and the control group (n=4) received 1 ml vanilla custard. After 6 weeks of supplementation, the fast extensor digitorum longus, (EDL) and slow-(soleus) muscles were removed for further biochemical analysis and frozen in liquid nitrogen. Muscles were stored at −80° C. until analysis. Thereafter, muscles were freeze-dried during 3 days at −4° C. The freeze-dried muscles were crushed to powder, 400 μl 1M HCl was added to approximately 10 mg tissue and hydrolysed at 98° C. during 2 hours. After cooling down, 400 μl 1M NaOH was added to neutralize the samples and the samples were centrifuged 5 minutes at 13,000 rpm. Glycogen content was determined fluorimetrically by a glucose kit (Roche Diagnostics) and expressed as μmol glycosyl units·g^−1.

C[N+](C)(C)CC(=O)O [betaine, 1-carboxy-N,N,N-trimethylmethanaminium inner salt]
Resting glycogen levels in rats (EDL (fast extensor digitorum longus) muscle): 120 + 4* μmol glycosyl units/g tissue | Resting glycogen levels in rats (Soleus (slow) muscle): 137 ± 16* μmol glycosyl units/g tissue | glycogen content of the muscle cells (rats given vanilla custard containing betaine vs vanilla custard control): significantly increases
